Test results from PubChem BioAssay AID1963442 (Molecular Pharmacology Branch, DTP, NCI, 2024).

Test system: MPNST complex spheroid with HUVEC/MSC, growth, % test/control
Experiment: Anticancer human tumor MPNST cell line growth inhibition [Asc];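 note: compounds left on spheroids for seven days before reading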
Settings: for IC50: curve of first compound; for viability, T/C: stronger effect = lower value
Procedure: Multicellular complex tumor spheroid response to apoptosis pathway targeting inhibitors Alrizomadlin, Pelcitoclax, and Dasminapant in combination with a variety of drugs and investigational agents in selected tumor cell lines
The MDM2 inhibitor alrizomadlin, the Bcl-2/Bcl-xL inhibitor pelcitoclax, and the IAPs inhibitor dasminapant were evaluated both individually and in combination with standard of care and investigational anticancer small molecules within a complex spheroid model of solid tumors. . Complex spheroids include a stromal component modeled by human endothelial cells (HUVEC) and fibroblasts modeled by human mesenchymal stem cells (MSCs). The concentration ranges selected for each drug and investigational agent were based upon clinically achievable concentrations if the clinical Cmax of the agent was known.
Compounds. The drugs and investigational agents: alrizomadlin (APG-115; NSC831270), pelcitoclax (APG-1252; NSC835773), dasminapant (APG-1387;NSC834197), TAK-243 (NSC785004), copanlisib (NSC809693), olaparib (NSC753686), talazoparib (NSC767125), cobimetinib (NSC 768068), eltanexor (KPT-8602, NSC 794443), abemaciclib (NSC 768073), sotorasib (NSC818433), adagrasib (NSC 831453), MRTX-1133 (NSC 836407), Iadademestat (ORY1001, NSC 806812), and RMC-4630 (NSC839698), were obtained from the NCI Developmental Therapeutics Program Chemical Repository. The FDA-approved anticancer drug set is available from the Developmental Therapeutics Program at https://dtp.cancer.gov/organization/dscb/obtaining/available plates.htm. […] The stock solutions were prepared in dimethyl sulfoxide (DMSO, Sigma-Aldrich, St. Louis, MO, cat. D2650) at 800-fold the tested concentration and stored at -70 degrees C prior to their use. All drugs and investigational agents were tested over a range starting from a high concentration at or near the clinical Cmax and decreasing in half-log increments. If the clinical Cmax for an agent had not been determined, the highest concentration tested was 10 microM.
The patient-derived cancer (PDC) cell lines include five colon adenocarcinomas: 186277-243-T-J2-PDC, 616215-338-R-J1-PDC, 439559-082-T-J2-PDC, 463943-066-T-J2-PDC, and 519858-162-T-J1-PDC; three pancreatic carcinomas: 323965-272-R-J2-PDC, 521955-158-R6-J3-PDC, and 521955-158-R2-J5-PDC; two uterine sarcomas: 327498-152-R-J2-PDC and 993429-296-R-J1-PDC; two rhabdomyosarcomas: 755483-174-R-J1-PDC and 772245-204-R-J1-PDC; two soft tissue sarcomas: 126254-015-R-J1-PDC and 494315-158-R-J1-PDC; two malignant fibrous histiocytomas: 317291-083-R-J1-PDC and 596521-263-R-J1-PDC; two breast carcinomas: 171881-019-R-J1-PDC and 885512-296-R-J2-PDC; and one ovarian carcinoma: 6556581-035-R-J-PDC were obtained from the NCI PDMR, (https://pdmr.cancer.gov). The established cell lines HSSY-2 synovial sarcoma (RRID:CVCL 8719), SYO-1 synovial sarcoma (RRID:CVCL_7146), MPNST malignant peripheral neural sheath tumor were obtained from the Sloan Kettering Institute. The following established cell lines were purchased from the American Type Culture Collection (ATCC, Manassas, VA), Sor the received from the NCI repository:, PANC-1 pancreatic carcinoma (CRL-1469, RRID:CVCL_0480), OVCAR-5 ovarian carcinoma (RRID:CVCL_1628), OVCAR-8 ovarian carcinoma (RRID:CVCL_1629), , MCF-7 breast carcinoma (CRL-12584, RRID:CVCL_0031), MDA-MB-231 breast carcinoma (CRL-12532, RRID:CVCL_0062), NCI-H1876 small cell lung carcinoma (CRL-5902, RRID:CVCL_1503), NCI-H510A small cell lung carcinoma (HTB-184, RRID:CVCL_1565), NCI-H1417 (CRL-5869, RRID:CVCL_1469), and NCI-H196 small cell lung carcinoma (CRL-5823, RRID:CVCL_1509). Dr. Peter Houghton (Greehey Children's Cancer Research Institute, University of Texas Health Science Center, San Antonio, TX) provided Rh-18 rhabdomyosarcoma (RRID:CVCL_1659). Pooled donor human umbilical vein endothelial cells (HUVEC, Lonza, cat. CC-2519) and human mesenchymal stem cells (hMSC, Lonza, cat. PT-2501) were purchased from Lonza (Walkersville, MD).
Cell Culture. […]

Compound: O=C(c1cc(Cc2n[nH]c(=O)c3ccccc23)ccc1F)N1CCN(C(=O)C2CC2)CC1 + Cc1c(S(C)(=O)=O)c(-c2cc(F)cc(N3CCN(c4ccc(NS(=O)(=O)c5ccc(NC(CCN6CCC(C(=O)OCCCP(=O)(O)O)CC6)CSc6ccccc6)c(S(=O)(=O)C(F)(F)F)c5)cc4)CC3)c2)c(-c2ccc(Cl)cc2)n1C(C)C
- IC50 (second compound 0.1 µM): > 10000 nM
- IC50 (second compound 0.316 µM): > 10000 nM
- IC50 (second compound 1 µM): 9830 nM
- IC50 (second compound 3.16 µM): > 10000 nM
- IC50 (second compound 10 µM): > 10000 nM
- viability, T/C (second compound 0.1 µM, first compound 0.0316 µM): 81.9%
- viability, T/C (second compound 0.1 µM, first compound 0.1 µM): 59.6%
- viability, T/C (second compound 0.1 µM, first compound 0.316 µM): 68.3%
- viability, T/C (second compound 0.1 µM, first compound 1 µM): 64.5%
- viability, T/C (second compound 0.1 µM, first compound 3.16 µM): 81.1%
- viability, T/C (second compound 0.1 µM, first compound 10 µM): 64.5%
- viability, T/C (second compound 0.316 µM, first compound 0.0316 µM): 70.9%
- viability, T/C (second compound 0.316 µM, first compound 0.1 µM): 67.1%
- viability, T/C (second compound 0.316 µM, first compound 0.316 µM): 56.8%
- viability, T/C (second compound 0.316 µM, first compound 1 µM): 69.5%
- viability, T/C (second compound 0.316 µM, first compound 3.16 µM): 60.8%
- viability, T/C (second compound 0.316 µM, first compound 10 µM): 49.8%
- viability, T/C (second compound 1 µM, first compound 0.0316 µM): 58.5%
- viability, T/C (second compound 1 µM, first compound 0.1 µM): 78.6%
- viability, T/C (second compound 1 µM, first compound 0.316 µM): 65.6%
- viability, T/C (second compound 1 µM, first compound 1 µM): 79.7%
- viability, T/C (second compound 1 µM, first compound 3.16 µM): 72.6%
- viability, T/C (second compound 1 µM, first compound 10 µM): 49.7%
- viability, T/C (second compound 3.16 µM, first compound 0.0316 µM): 101%
- viability, T/C (second compound 3.16 µM, first compound 0.1 µM): 72.9%
- viability, T/C (second compound 3.16 µM, first compound 0.316 µM): 77.1%
- viability, T/C (second compound 3.16 µM, first compound 1 µM): 64%
- viability, T/C (second compound 3.16 µM, first compound 3.16 µM): 58.8%
- viability, T/C (second compound 3.16 µM, first compound 10 µM): 51.5%
- viability, T/C (second compound 10 µM, first compound 0.0316 µM): 75%
- viability, T/C (second compound 10 µM, first compound 0.1 µM): 85.8%
- viability, T/C (second compound 10 µM, first compound 0.316 µM): 76.9%
- viability, T/C (second compound 10 µM, first compound 1 µM): 62.5%
- viability, T/C (second compound 10 µM, first compound 3.16 µM): 68.9%
- viability, T/C (second compound 10 µM, first compound 10 µM): 49%

Compound: NC(=O)C(=Cn1cnc(-c2cc(C(F)(F)F)cc(C(F)(F)F)c2)n1)c1cncnc1 + CNC(C)C(=O)NC1CN(S(=O)(=O)c2cccc(S(=O)(=O)N3CCC4CCC(C(=O)NC(c5ccccc5)c5ccccc5)N4C(=O)C(NC(=O)C(C)NC)C3)c2)CCC2CCC(C(=O)NC(c3ccccc3)c3ccccc3)N2C1=O
- IC50 (second compound 0.00316 µM): 11.6 nM
- IC50 (second compound 0.01 µM): 54.6 nM
- IC50 (second compound 0.0316 µM): 163 nM
- IC50 (second compound 0.1 µM): 52.7 nM
- IC50 (second compound 0.316 µM): 18.1 nM
- IC50 (second compound 1 µM): 69.8 nM
- viability, T/C (second compound 0.00316 µM, first compound 0.000949 µM): 68.7%
- viability, T/C (second compound 0.00316 µM, first compound 0.003 µM): 65%
- viability, T/C (second compound 0.00316 µM, first compound 0.00949 µM): 49.3%
- viability, T/C (second compound 0.00316 µM, first compound 0.03 µM): 43.9%
- viability, T/C (second compound 0.00316 µM, first compound 0.0949 µM): 28%
- viability, T/C (second compound 0.00316 µM, first compound 0.3 µM): 30.8%
- viability, T/C (second compound 0.01 µM, first compound 0.000949 µM): 78.4%
- viability, T/C (second compound 0.01 µM, first compound 0.003 µM): 73%
- viability, T/C (second compound 0.01 µM, first compound 0.00949 µM): 84.1%
- viability, T/C (second compound 0.01 µM, first compound 0.03 µM): 66.3%
- viability, T/C (second compound 0.01 µM, first compound 0.0949 µM): 34.6%
- viability, T/C (second compound 0.01 µM, first compound 0.3 µM): 35.3%
- viability, T/C (second compound 0.0316 µM, first compound 0.000949 µM): 58.5%
- viability, T/C (second compound 0.0316 µM, first compound 0.003 µM): 72%
- viability, T/C (second compound 0.0316 µM, first compound 0.00949 µM): 70.5%
- viability, T/C (second compound 0.0316 µM, first compound 0.03 µM): 82.1%
- viability, T/C (second compound 0.0316 µM, first compound 0.0949 µM): 59.2%
- viability, T/C (second compound 0.0316 µM, first compound 0.3 µM): 34.9%
- viability, T/C (second compound 0.1 µM, first compound 0.000949 µM): 101%
- viability, T/C (second compound 0.1 µM, first compound 0.003 µM): 80.7%
- viability, T/C (second compound 0.1 µM, first compound 0.00949 µM): 103%
- viability, T/C (second compound 0.1 µM, first compound 0.03 µM): 62.3%
- viability, T/C (second compound 0.1 µM, first compound 0.0949 µM): 37.5%
- viability, T/C (second compound 0.1 µM, first compound 0.3 µM): 36.9%
- viability, T/C (second compound 0.316 µM, first compound 0.000949 µM): 72.6%
- viability, T/C (second compound 0.316 µM, first compound 0.003 µM): 49.9%
- viability, T/C (second compound 0.316 µM, first compound 0.00949 µM): 60.5%
- viability, T/C (second compound 0.316 µM, first compound 0.03 µM): 46%
- viability, T/C (second compound 0.316 µM, first compound 0.0949 µM): 43.7%
- viability, T/C (second compound 0.316 µM, first compound 0.3 µM): 34.4%
- viability, T/C (second compound 1 µM, first compound 0.000949 µM): 63.2%
- viability, T/C (second compound 1 µM, first compound 0.003 µM): 59%
- viability, T/C (second compound 1 µM, first compound 0.00949 µM): 66.2%
- viability, T/C (second compound 1 µM, first compound 0.03 µM): 55.6%
- viability, T/C (second compound 1 µM, first compound 0.0949 µM): 47.8%
- viability, T/C (second compound 1 µM, first compound 0.3 µM): 36%
